Consider one molecule from patent US6355677B1, “Adrenoleukodystrophy treatments and drug screening” (The Johns Hopkins University, priority 1998, dated 2002).

Assay [1] has as its system X-ALD human lymphoblastoid cells. The experiment in a line: C24:0 β-oxidation ([1-14C]-C24:0 degradation). The format is cell-based. To be noted: 5 mM 4PBA for 6 days. As to the method:
(§1) Cell lines derived from X-ALD patients and X-ALD mice were grown in MEM (fibroblasts) or RPMI (lymphoblastoid cells) supplemented with fetal calf serum (10%), penicillin (100 U/ml), streptomycin (100 U/ml) and glutamine (2 mM). […] Cells in the second flask were grown without drug for the same length of time and served as controls. The media were changed every 3-4 days.
(§2) For VLCFA measurements, total lipids were extracted, converted to methyl esters, purified by TLC and subjected to capillary GC analysis as described. Duplicate assays were set up independently and were assayed on different days. C24:0 β-oxidation activity of human and mouse fibroblasts and human lymphoblastoid cells was determined by measuring their capacity to degrade [1-^14C]-C24:0 fatty acid (American Radiolabeled Chemicals, St. Louis, Mo.) to water-soluble products as described. Phytanic acid oxidation was measured as described. Cells were incubated with [2,3-^3H]-phytanic acid for 24 hours, and the release of ^3H-H2O to the aqueous medium was determined (activity in pmol/hr per mg protein).

Assay [2] deals with X-ALD human primary fibroblasts. As to the kind of experiment: C24:0 β-oxidation ([1-14C]-C24:0 degradation). The format is cell-based. The note with it: 5 mM 4PBA for 6 days. How it is done: as §1, §2
In assay [3] the test system is X-ALD mouse primary fibroblasts. As to the kind of experiment: C24:0 β-oxidation ([1-14C]-C24:0 degradation). The assay is classed as cell-based. The note with it: 5 mM 4PBA for 6 days. How it is done: as §1, §2
The subject of assay [4] is ALDP. The experiment in a line: Semi-quantitative RT-PCR, human primary fibroblasts. The assay is classed as cell-based. The note with it: normal fibroblasts, 5 mM, 2 days. As to the method:
(§3) Semi-quantitative RT-PCR was done on the mRNA isolated from these cells (FIG. 1). […] In addition, the expression of acyl-CoA oxidase (AOX), the rate-limiting enzyme in VLCFA β-oxidation, was not affected. Although previous studies have reported that ALDR mRNA was not detectable in fibroblasts by either northern or RT-PCR analyses, those RT-PCR studies used about 66 ng of CDNA; we used about 250 ng of cDNA.
(§4) Total RNA from tissue culture cells (10^6-10^7 cells/sample) was isolated using TRizol Reagent™ (Life Technologies), treated with DNase I (100-200 units in 40 mM HC, 10mM NaC, 6 mM MgCl2, pH 7.3), incubated at 37° C. for 30 min, extracted with pheno/chloroform, and precipitated with isopropanol. cDNA was generated using MMLV reverse transcriptase (RT) (Life Technologies). PCR was done in the linear range of amplification (determined for each primerpair-cDNA combination). For each cDNA sample, a ‘cocktail’ was prepared, containing PCR buffer (Promega), 200 µM of each DNTP, 1.5 mM MgCl2, 250 ng cDNA, 0.25 U of Taq polymerase (Promega) and […]. The ‘cocktail’ was divided into separate tubes containing cDNA specific primers.
(§5) The PCR primers used are listed below. In the parentheses, h indicates human and m, mouse; this is followed by the gene name, product size and annealing temperature. For primer sequences, F is forward and R is reverse. (hALD, 249, 64° C.) F: 5′-[…]-3′, R: 5′-[…]-3′; (mALD, 526, 59° C.) F: 5′-[…]-3′, R: 5′-[…]-3′; (hPMP70, 405, 60° C.) F: 5′-[…]-3′, R: 5′-[…]-3′; (mPMP70, 405, 60° C.) F: 5′-TTr[…]-3′, R: 5′-[…]-3′; (hALDR, 312, 56° C.) F: 5-[…]-3′, R: 5′-[…]-3′; (mALDR, 711, 57° C.) F: 5′-[…]-3′, R: 5′-[…]-3′; (hPMP69, 319, 60° C.) F: 5′-[…]-3′, R: 5-[…]-3′; (hAOX, 405, 60° C.) F: 5′-[…]-3′, R: 5′[…]-3′; (mAOX, 247, 60° C.) F: 5′-[…]r[…]-3′, R: 5′-[…]-3′; (hPPARα, 347, 60° C.) F: 5-[…]r[…]rCC-3′, R: 5′-[…]-3′; (mFPPARa, 268, 60° C.) F: 5′-GATTr[…]-TGAGG-3, R: 5′-[…]-3′; (hPex11α 658, 55° C.) F: 5-[…]-3′, R: 5′-[…]-3′; (mpex11α, 720, 55° C.) F: 5′-[…]r[…]-3′, R: 5′-[…]-3′; (β-Actin, 460, 62° C.) F:5′-[…]-3′, R: 5′-[…]-3, (glyceraldehyde 3-phosphate dehydrogenase (GAPDH), 528, 62° C.) F: 5′-[…]-3, R: 5′-[…]-3′. β-Actin and GAPDH primers were used for both human and mouse analyses.

Assay [5] concerns ALDR mRNA. Described as above. The format is cell-based. To be noted: normal and X-ALD fibroblasts, 5 mM, 2 days, relative to β-actin. How it is done: as §3, §4, §5
Assay [6] has as its system PMP69. The description is as above. The assay is classed as cell-based. To be noted: X-ALD or normal fibroblasts, 5 mM, 2 days. As to the method:
as §3, §4, §5

The test system of assay [7] is PMP70. Described as above. The format is cell-based. The note with it: X-ALD or normal fibroblasts, 5 mM, 2 days. How it is done: as §3, §4, §5
Assay [8] concerns acyl-CoA oxidase (AOX). The assay is described as above. The format is cell-based. To be noted: 5 mM. How it is done:
as §3, §4, §5

The test system of assay [9] is ALDP. As to the kind of experiment: Semi-quantitative RT-PCR, mouse primary fibroblasts. The assay is classed as cell-based. The note with it: normal fibroblasts, 5 mM, 2 days. How it is done: as §3, §4, §5
The subject of assay [10] is ALDR mRNA. The assay is described as above. The format is cell-based. The note with it: normal and X-ALD fibroblasts, 5 mM, 2 days, relative to GAPDH. As to the method: as §3, §4, §5
For assay [11], the system named is PMP70. Described as above. The note with it: X-ALD or normal fibroblasts, 5 mM, 2 days. The assay is classed as cell-based. As to the method:
as §3, §4, §5

Assay [12] relates to acyl-CoA oxidase (AOX). The description is as above. The assay is classed as cell-based. The note with it: 5 mM, 2 days. How it is done:
as §3, §4, §5

Assay [13] relates to human primary fibroblasts. The experiment in a line: Phytanic acid oxidation ([2,3-3H]-phytanic acid). The note with it: 5 mM, 10 days. The format is cell-based. As to the method: Phytanic acid oxidation occurs exclusively in the peroxisomal matrix and can therefore serve as a marker for peroxisomal function. […] SCP2 is a 15-kDa protein located exclusively in the peroxisomal matrix.
as §2

The subject of assay [14] is ΔF508-CFTR. The note with it: nasal epithelia cells, homozygous or heterozygous ΔF508-CFTR; cited from earlier work.

Entries after “also recorded” stand apart in the source; their conditions may differ.

With `O=C(O)CCCc1ccccc1` [4-PBA, 4-Phenyl butyrate], the “C24:0 β-oxidation, Increase (treated over untreated)” value in assay [1], in assay [2] and in [3] was “twofold to threefold” each time. Further, the “C24:0 β-oxidation, Treated (mean specific activity)” value in [1] was 0.18 ± 0.03 nmol/hr per mg protein; in assay [2], 0.39 ± 0.07 nmol/hr per mg protein; in [3] it was 0.28 ± 0.03 nmol/hr per mg protein. Also, the ALDP expression level result in assay [4] is on record as “little, if any, effect”; in assay [9], “little, if any, effect”. For the same molecule, the “ALDR mRNA level” value in [5] and in assay [10] was “substantially increased; also recorded: substantial increase” throughout. Further, the PMP69 expression level result in [6] is “little, if any, effect”. In addition, the PMP70 expression level result in [7] is “little, if any, effect”; in assay [11], “little, if any, effect”. In addition, the AOX expression entry in [8] (2 days) is “unchanged; also recorded: not affected”; in assay [8] (10 days), “remained unchanged”; in assay [12], “unchanged; also recorded: not affected”. In addition, the “Increase in phytanic acid oxidation” value in assay [13] (X-ALD human primary fibroblasts) and in [13] (normal human primary fibroblasts) was “twofold” throughout. Besides, the “Effect on ΔF508-CFTR” value in [14] is “rescue of ΔF508-CFTR from premature degradation”.
